Laboratory results reported in PubChem BioAssay (NCI).
“And” between values parts separate entries of the source, which are not always exact repeats. Equal entries are not always repeated.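 48-hour exposure; five concentrations; linearly interpolated endpoints. Here, GI50 denotes the concentration required for 50% inhibition of growth. TGI: total growth inhibition.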

What was measured:
Experiment in all cases: NCI tumour cell line growth inhibition, 48 h
786-0 renal = system: 786-0 renal
A498 renal = system: A498 renal
A549 NSCLC = system: A549 NSCLC
ACHN renal = system: ACHN renal
BT-549 breast = system: BT-549 breast
CAKI-1 renal = system: CAKI-1 renal
CCRF-CEM leukemia = system: CCRF-CEM leukemia
COLO 205 colon = system: COLO 205 colon
DU-145 prostate = system: DU-145 prostate
EKVX NSCLC = system: EKVX NSCLC
HCC-2998 colon = system: HCC-2998 colon
HCT-116 colon = system: HCT-116 colon
HCT-15 colon = system: HCT-15 colon
HL-60(TB) leukemia = system: HL-60(TB) leukemia
HOP-62 NSCLC = system: HOP-62 NSCLC
HOP-92 NSCLC = system: HOP-92 NSCLC
HS 578T breast = system: HS 578T breast
HT29 colon = system: HT29 colon
IGROV1 ovarian = system: IGROV1 ovarian
K-562 leukemia = system: K-562 leukemia
KM12 colon = system: KM12 colon
LOX IMVI melanoma = system: LOX IMVI melanoma
M14 melanoma = system: M14 melanoma
MALME-3M melanoma = system: MALME-3M melanoma
MCF7 breast = system: MCF7 breast
MDA-MB-231 breast = system: MDA-MB-231 breast
MDA-MB-435 = system: MDA-MB-435
MOLT-4 leukemia = system: MOLT-4 leukemia
NCI-H226 lung = system: NCI-H226 lung
NCI-H23 lung = system: NCI-H23 lung
NCI-H460 lung = system: NCI-H460 lung
NCI-H522 lung = system: NCI-H522 lung
NCI/ADR-RES ovarian = system: NCI/ADR-RES ovarian
OVCAR-3 ovarian = system: OVCAR-3 ovarian
OVCAR-4 ovarian = system: OVCAR-4 ovarian
OVCAR-5 ovarian = system: OVCAR-5 ovarian
OVCAR-8 ovarian = system: OVCAR-8 ovarian
PC-3 prostate = system: PC-3 prostate
RPMI-8226 leukemia = system: RPMI-8226 leukemia
RXF 393 renal = system: RXF 393 renal
SF-268 CNS = system: SF-268 CNS
SF-295 CNS = system: SF-295 CNS
SF-539 CNS = system: SF-539 CNS
SK-MEL-2 melanoma = system: SK-MEL-2 melanoma
SK-MEL-28 melanoma = system: SK-MEL-28 melanoma
SK-MEL-5 melanoma = system: SK-MEL-5 melanoma
SK-OV-3 ovarian = system: SK-OV-3 ovarian
SN12C renal = system: SN12C renal
SNB-19 CNS = system: SNB-19 CNS
SNB-75 CNS = system: SNB-75 CNS
SR leukemia = system: SR leukemia
SW-620 colon = system: SW-620 colon
T-47D breast = system: T-47D breast
TK-10 renal = system: TK-10 renal
U251 CNS = system: U251 CNS
UACC-257 melanoma = system: UACC-257 melanoma
UACC-62 melanoma = system: UACC-62 melanoma
UO-31 renal = system: UO-31 renal

## O=C(NNc1nc2cc(F)cc(F)c2n2cccc12)c1cccnn1
786-0 renal
  GI50: 208 nM and 261 nM
  TGI: 2460 nM and 6240 nM
A498 renal
  GI50: 868 nM and 428 nM
  TGI: 4850 nM and 3080 nM
A549 NSCLC
  GI50: 378 nM and 215 nM
  TGI: 5720 nM and 3740 nM
ACHN renal
  GI50: 164 nM and 165 nM
  TGI: 4140 nM and 3170 nM
BT-549 breast
  GI50: 520 nM and 291 nM
  TGI: 2260 nM and 9430 nM
CAKI-1 renal
  GI50: 291 nM and 183 nM
  TGI: 4960 nM and 5280 nM
CCRF-CEM leukemia
  GI50: 163 nM and 43.2 nM
COLO 205 colon
  GI50: 533 nM
  TGI: 5060 nM
DU-145 prostate
  GI50: 507 nM and 371 nM
  TGI: 6230 nM and 4080 nM
EKVX NSCLC
  GI50: 350 nM and 164 nM
  TGI: 13300 nM and 3260 nM
HCC-2998 colon
  GI50: 612 nM and 436 nM
  TGI: 11300 nM and 18000 nM
HCT-116 colon
  GI50: 151 nM
  TGI: 916 nM
HCT-15 colon
  GI50: 124 nM and 48.3 nM
  TGI: 13500 nM and > 100000 nM
HL-60(TB) leukemia
  GI50: 765 nM and 259 nM
HOP-62 NSCLC
  GI50: 206 nM and 67.7 nM
  TGI: 4770 nM and 5250 nM
HOP-92 NSCLC
  GI50: 778 nM and 440 nM
  TGI: 8790 nM and 5340 nM
HS 578T breast
  GI50: 3790 nM and 1130 nM
  TGI: 30000 nM and 36800 nM
HT29 colon
  GI50: 725 nM and 475 nM
  TGI: 30000 nM and 27200 nM
IGROV1 ovarian
  GI50: 210 nM and 211 nM
  TGI: 4680 nM and 3640 nM
K-562 leukemia
  GI50: 817 nM and 263 nM
KM12 colon
  GI50: 507 nM and 185 nM
  TGI: 30000 nM and > 100000 nM
LOX IMVI melanoma
  GI50: 295 nM
  TGI: 3570 nM
M14 melanoma
  GI50: 164 nM and 179 nM
MALME-3M melanoma
  GI50: 784 nM and 1020 nM
  TGI: 6180 nM and 5970 nM
MCF7 breast
  GI50: 453 nM and 260 nM
  TGI: 5670 nM and 2560 nM
MDA-MB-231 breast
  GI50: 820 nM and 784 nM
  TGI: 10300 nM and > 100000 nM
MDA-MB-435
  GI50: 1270 nM and 599 nM
  TGI: 30000 nM and 15800 nM
MOLT-4 leukemia
  GI50: 186 nM and 167 nM
NCI-H226 lung
  GI50: 341 nM and 799 nM
  TGI: 5640 nM and 7420 nM
NCI-H23 lung
  GI50: 575 nM
  TGI: > 100000 nM
NCI-H460 lung
  GI50: 147 nM and 61 nM
  TGI: 3470 nM and 1280 nM
NCI-H522 lung
  GI50: 890 nM and 254 nM
NCI/ADR-RES ovarian
  GI50: 270 nM and 161 nM
  TGI: 3850 nM and 2190 nM
OVCAR-3 ovarian
  GI50: 234 nM and 128 nM
  TGI: 5190 nM and 10700 nM
OVCAR-4 ovarian
  GI50: 212 nM
  TGI: 8520 nM
OVCAR-5 ovarian
  GI50: 847 nM and 1390 nM
  TGI: 30000 nM and 31600 nM
OVCAR-8 ovarian
  GI50: 362 nM and 246 nM
  TGI: 30000 nM and > 100000 nM
PC-3 prostate
  GI50: 478 nM and 296 nM
  TGI: 30000 nM and > 100000 nM
RPMI-8226 leukemia
  GI50: 716 nM and 286 nM
  TGI: 30000 nM and 3060 nM
RXF 393 renal
  GI50: 865 nM and 242 nM
  TGI: 3610 nM and 2170 nM
SF-268 CNS
  GI50: 359 nM and 209 nM
  TGI: 30000 nM and 11400 nM
SF-295 CNS
  GI50: 175 nM and 73.5 nM
  TGI: 4600 nM and 2140 nM
SF-539 CNS
  GI50: 396 nM and 314 nM
  TGI: 3870 nM and 3350 nM
SK-MEL-2 melanoma
  GI50: 1330 nM and 1170 nM
  TGI: 19800 nM and 26200 nM
SK-MEL-28 melanoma
  GI50: 517 nM and 528 nM
  TGI: 12500 nM and 21600 nM
SK-MEL-5 melanoma
  GI50: 504 nM and 312 nM
  TGI: 4950 nM and 2390 nM
SK-OV-3 ovarian
  GI50: 441 nM and 344 nM
  TGI: 6480 nM and 6700 nM
SN12C renal
  GI50: 500 nM and 554 nM
  TGI: 16400 nM and 19900 nM
SNB-19 CNS
  GI50: 409 nM and 337 nM
SNB-75 CNS
  TGI: 17900 nM and 7790 nM
SR leukemia
  GI50: 147 nM and 43.1 nM
SW-620 colon
  GI50: 363 nM and 289 nM
  TGI: 21100 nM and > 100000 nM
T-47D breast
  GI50: 632 nM and 322 nM
  TGI: 11300 nM and 4180 nM
TK-10 renal
  GI50: 792 nM and 317 nM
  TGI: 20800 nM and 11300 nM
U251 CNS
  GI50: 241 nM and 113 nM
  TGI: 13300 nM and 4420 nM
UACC-257 melanoma
  GI50: 868 nM and 395 nM
  TGI: 3410 nM and 3630 nM
UACC-62 melanoma
  GI50: 305 nM and 329 nM
UO-31 renal
  GI50: 118 nM and 51.9 nM
  TGI: 3630 nM and 1770 nM
